Experiment [1] relates to promastigotes of LmexCas9. Description: Resazurin-based assay on LmexCas9 promastigotes. It is filed as cell-based, Leishmania mexicana. How it is done:
(§1) Bloodstream trypomastigotes of the Y strain (DTU II) were obtained by cardiac puncture of infected Swiss Webster mice on the parasitemia peak to perform drug sensitivity assays. Trypomastigote forms of the Tulahuen-β gal strain were collected from the supernatant of previously infected L929 cell cultures (host/parasite cell ratio 10:1). The intracellular forms T. cruzi were studied by the infection of L929 and H9C2 (2D and 3D) cell cultures infected for 48 and 24 h with trypomastigotes of Tulahuen-β gal and Y strains, respectively. The Leishmania mexicana-Cas9 T7 strain (LmexCas9) was derived from L. mexicana WT promastigotes by expression of the Streptococcus pyogenes Cas9 nuclease gene ‘Cas9′ and maintained on 32 μg/mL hygromycin [51]. This strain and the derived strains Cas9^ΔNT1 and Cas9^ΔNT1+TcrNT2 were cultured in HOMEM medium supplemented with 10% of FBS and 1% Penicillin-Streptomycin antibiotic in unvented flasks at 25 °C [52]. The Cas9^ΔNT1 strain is identical to Cas9 except that the LmexNT1.1/NT1.2 locus encoding the L. mexicana adenosine/ pyrimidine transporters was excised using Cas9 [17, 40]. Cas9^ΔNT1+TcrNT2 is the further modification of that strain by the expression of the T. cruzi nucleoside transporter 2 (TcrNT2) gene in it, using the vector pNUS-HcN [53]. Appropriate antibiotics were added for the selection and maintenance of transfectants.
The EC50 values for nucleoside analogues against Leishmania mexicana promastigotes of the Cas9, Cas9^ΔNT1 and Cas9^ΔNT1+TcrNT2 strains used a resazurin-based assay, as described. Briefly, the assays were performed in standard HOMEM medium and culture conditions, in white opaque 96-well plates. For each test compound (stored as a 40 mM stock solution in 100% DMSO at −20 °C), a doubling dilution was performed over 2 rows of the plate, keeping the last well free as no-drug control with HOMEM only (23 doubling dilutions; highest concentration 100 µM). To each well, 100 µL of HOMEM containing 2 × 10^5 cells of the appropriate L. mexicana line was added, and the plates incubated for 72 h at 25 °C, followed by the addition of 20 µL of resazurin solution and further incubation for 48 h. Fluorescence was read on a FLUOstar OPTIMA plate reader (BMG Labtech, Germany), at an excitation wavelength of 544 nm and an emission wavelength of 620 nm. The EC50 values were determined by the GraphPad Prism 8.0 software using an equation for a sigmoid curve with variable slope. Pentamidine was used as positive control, and every experiment was independently performed at least 3 times independently.
In general terms: The colour change of resazurin is a common sign of viable cells or microbes.

Experiment [2] concerns H9C2 3D cultures. Description: Cardiotoxicity on H9C2 organoids (3D), PrestoBlue. It is filed as cell-based, rat. As to conditions: 95% confidence interval in brackets. The source says:
(§2) L929 cell lines were used to evaluate the effect of the nucleoside derivatives on the cellular viability of mammalian host cells and to assess their activity against intracellular forms of T. cruzi (Tulahuen strain expressing E. coli β-galactosidase gene, DTU VI) as reported. 2D and 3D culture systems of rat cardiomyoblast cell lines (H9C2(2-1)) were used to evaluate cardiotoxicity and to test the derivatives’ activity on intracellular forms (Y strain, DTU II). In all assays, the cell cultures were maintained at 37 °C under an atmosphere of 5% CO2.
L929 cells seeded in sterile 96-well microtiter plates were exposed or not to increasing concentrations (up to 200 µM) of the compounds. After seven days of incubation, the cell growth of treated cultures was compared to untreated control cells (100% cell growth). Cellular viability was assessed through AlamarBlue® (resazurin sodium salt) colorimetric assay, and the results were expressed as % reduction in cell growth/viability compared to untreated control, and an IC50 value determined. For the assays using H9C2 cultures, 25 × 10^3 cells/well were seeded in a 96-well microtiter plates (flat and U bottoms, precoated with agarose 1% for preparing 2- and 3D matrices, respectively) and maintained at 37 °C [48, 54].
The cardiac cultures were exposed or not to increasing concentrations of the nucleoside derivatives (up to 300 µM), and after seven days of incubation, their physiology and morphology was evaluated by light microscopy. Cell viability was measured using the PrestoBlue® (PB) colorimetric assay, the results evaluated as % reduction in cell growth/viability compared to untreated control, and an IC50 value determined. The data results from at least two independent experiments done in at least duplicates.

Experiment [3] relates to intracellular forms of T. cruzi (Y strain) in 3D H9C2. As to the kind of experiment: Activity against T. cruzi (Y strain) infection of H9C2 spheroids (3D). It is filed as cell-based, Trypanosoma cruzi. To be noted: 10 µM, seven days of incubation, 95% confidence interval in brackets.
Source text: as §2, §1
3D cultures of H9C2 cells were obtained as described, and 24 h after plating, the spheroids were infected (or not, control) with bloodstream trypomastigotes of T. cruzi (strain Y), using 20 parasites per host cell. After 24 h, infected spheroids were incubated with 10 µM of the tested compounds for seven days, and then the spheroids were transferred one by one to an Eppendorf tube, with the aid of a pestle they were mechanically macerated following an established protocol with minor adaptations. The parasite load was quantified by light microscopy and qPCR [54], and the results were expressed as % of parasite death. The data results from two independent experiments performed in at least duplicate.

Experiment [4] has as its system intracellular forms of T. cruzi (Tulahuen strain). Description: Activity against intracellular forms of T. cruzi (Tulahuen-β gal strain) in L929 cultures, CPRG readout. It is filed as cell-based. To be noted: Trypanosoma cruzi, 168 h; Tulahuen strain in L929, seven days of compound incubation; 95% confidence interval in brackets.
Source text: as §2, §1
In an initial step, nucleoside derivatives were assayed against intracellular forms of Tulahuen-β gal strain in L929 cell lines. Assays were performed in sterile 96-well microtiter plates with 4 × 10^3 cells/well and 4 × 10^4 parasites/well (host/parasite cell ratio 1:10). After the establishment of infection (48 h), increasing concentrations (up to 30 µM) of the compounds were added, and the cultures maintained at 37 °C for seven days. Untreated-infected controls represented 100% growth. Parasite burden was analyzed by adding the substrate CPRG (chlorophenol red ß-D-galactopyranoside) followed by measurements (spectrophotometrically) at 570 nm. The results were expressed as percentage of reduction in parasite growth compared to untreated cells, and EC50 values were calculated. Bz was used as a positive control. To investigate the effect of the compounds against intracellular forms of the Y strain, rat cardiomyoblasts (2D cultures of H9C2) were seeded in 24-well plates and, after 24 h of platting, were infected with bloodstream trypomastigotes (20 parasites per host cell). After 24 h of interaction, the infected cultures were rinsed to remove non-internalized parasites and incubated with 10 µM of the tested compounds. After seven days of treatment, the cultures were fixed, stained with Giemsa, and 200 cells were quantified by light microscopy. The results were expressed as % of reduction in parasite burden. The data results from two independent experiments performed in at least duplicate were obtained.

The mark [5] stands for this setting: Leishmania mexicana, read-out: Cas9 EC50 (μM), promastigotes, resazurin-based assay, highest concentration 100 µM.
The mark [6] stands for this setting: Rattus norvegicus, H9c2, 168 h, read-out: Cardiotoxic profile IC50 (µM) 3D, 3D H9C2, seven days of compound incubation.
Where [7] appears, read: read-out: Cardiotoxic profile IC50 (µM) 3D, 3D H9C2, seven days of compound incubation.

Where two headings read alike, the source gives them in different places.

Broadly, the IC50 is the point on the concentration scale where inhibition reaches its midpoint. In general, EC90 refers to the concentration needed for an effect of 90%. High values mean weaker potency, low ones greater potency.

Take `Nc1ncnc2c1c(-c1ccc(Cl)c(F)c1)cn2[C@@H]1O[C@H](CO)[C@@H](O)[C@H]1O` [FH10714, 7-(3-fluoro,4-chlorophenyl)tubercidin]: the results for the EC50 in experiment [1] (setting [5]) and in experiment [4] were above 100 µM and 0.47 µM, respectively. Also, the IC50 in experiment [2] (setting [6]) was determined as 180 µM; in experiment [2] (setting [7]), 181 µM. In addition, the “% of Death Rate by Light Microscopy Quantification 3D” value in experiment [3] is recorded as 93.5 (93.46 to 93.54) %. Also, the “% of Death Rate by qPCR 3D” value in experiment [3] is listed as 67 (38 to 96) %. In experiment [4], this compound came in with an EC90 of 6.19 µM.

Turning to `Nc1ncnc2c1c(-c1ccc(F)c(F)c1)cn2[C@@H]1O[C@H](CO)[C@@H](O)[C@H]1O` [FH11706, 7-(3,4-Difluorophenyl)tubercidin], in experiment [1] (setting [5]), the EC50 was above 100 µM. The 50% inhibitory concentration (IC50) in experiment [2] (setting [6]) is above 200 µM. Besides, in experiment [3], the “% of Death Rate by Light Microscopy Quantification 3D” value is recorded as 91.6 (86.2 to 97) % and the “% of Death Rate by qPCR 3D” value is recorded as 85 (79 to 91) %. In experiment [4], this compound showed an EC50 of 1.11 µM and a 90% effect concentration (EC90) above 30 µM.

Take `Nc1ncnc2c1c(-c1ccc(Cl)c(Cl)c1)cn2[C@@H]1O[C@H](CO)C[C@H]1O` [FH8513, 7-(3,4-dichlorophenyl)-3′-deoxytubercidin]: the EC50 in experiment [1] (setting [5]) is around 100 µM; in experiment [1] (read-out: Cas9 EC50, promastigotes, resazurin-based assay, highest concentration 100 µM), above 100 µM; in experiment [4] it was 0.2 µM. The half-maximal inhibitory concentration (IC50) in experiment [2] (setting [6]) was found to be 199 µM; in experiment [2] (setting [7]), 200 µM. Moreover, the “% of Death Rate by Light Microscopy Quantification 3D” value in experiment [3] is 83.8 (67.5 to 100) %. Further, in experiment [3], the “% of Death Rate by qPCR 3D” value is 94 (90 to 98) %. The same compound registered an EC90 in experiment [4] of 1.61 µM.

As to `O=C(Cn1ccnc1[N+](=O)[O-])NCc1ccccc1` [Bz, Benznidazole, reference compound], the IC50 in experiment [2] (setting [6]) was above 200 µM. Besides, in experiment [3], the “% of Death Rate by Light Microscopy Quantification 3D” value is reported as 98.4 (98.1 to 98.7) % and the “% of Death Rate by qPCR 3D” value is 100%. In experiment [4], this compound displayed an EC50 of 1.97 µM and a 90% effect concentration (EC90) of 5.54 µM.
